{
  "source": "patent US11767353B2",
  "about": "“Trail compositions with reduced immunogenicity” (Theraly Fibrosis, Inc., priority 2020, dated 2023)",
  "key": {"COLO 205 cells": {"test_system": "COLO 205 cells", "assay": "Cell viability bioassay (CELL TITER-GLO) on COLO 205 cells", "type": "cell-based, Human", "conditions": "colorectal cancer cells COLO-205; read-out: potency in cell viability bioassay", "excerpt": "TLY012 is a PEGylated form of rhTRAIL, genetically fused to a humanized coiled-coil isoleucine “zipper” (miLZ) at the N-terminus. It is a DR4/DR5 receptor agonist and as such is known to induce apoptosis in Human colon adenocarcinoma cells COLO 205 resulting in inhibition of cell proliferation. CELL TITER-GLO™ (Promega, WI) was used to measure luminescence in conventional luciferase assay system. This assay is a homogeneous method to determine the number of metabolically active cells based on quantitation of the ATP present. […]\nAssay Procedure. […] The 96-well plates were placed into a 37±1.0° C.; 5±0.5% CO2; ≥85% relative humidity cell culture incubator in a single layer and incubated for 1±0.5 hours until cells are ready. […] As a result, inhibition of cell proliferation is measured by adding the CELL TITER-GLO™ solution to the cells, the lysed cells release ATP. […]\nThe growth medium was RPMI1640 with 10% FBS, glutamine, penicillin/streptomycin solution. […] Cell suspension was transferred to the white 96-well plates and luminescence was measured by BIOTEK plate reader.\nData were analyzed using BioTek Gen5secure software. The dose response curves were generated using the four-parameter fit logistic model and the IC50 values for reference standard and test samples were calculated. Potency of the test sample is expressed as the ratio of the IC50 values of the test and reference standard samples. […]"}, "[1]": {"test_system": "primary human hepatocytes", "assay": "Off-target toxicity in primary human hepatocytes", "type": "cell-based", "conditions": "concentrations up to 100 nM"}, "[2]": {"assay": "Formulation stability and freeze-thaw stability", "type": "physicochemical", "excerpt": "The stability may be evaluated by measuring the ratio of soluble material to the insoluble material that can be separated by centrifugation. The intact structure of stored material can also be confirmed by IEX-HPLC (SP-NPR) and RP-HPLC (C4)."}, "[3]": {"test_system": "Human Colon Carcinoma Fibroblasts HC-6231", "assay": "Caspase 3/7 activity in colon cancer associated fibroblasts", "type": "cell-based", "conditions": "TLY012 0-1000 ng/ml for 3h, FIG. 12A", "excerpt": "Human Colon Carcinoma Fibroblasts HC-6231 were obtained from Cell Biologics (Catalog Number HC-6231) and maintained in fibroblast media (Cell Biologics, Catalog Number M2267)."}, "[4]": {"test_system": "activated human primary pancreatic stellate cells (PSCs)", "assay": "Caspase 3/7 activity and immunoblot in activated pancreatic stellate cells", "type": "cell-based", "conditions": "TLY012 30 or 100 ng/ml for 3h", "protocol": "Human primary pancreatic stellate cells (PSCs) and stellate cell medium (SteCM) were obtained from ScienCell Research Laboratories (Carlsbad, Calif.). PSCs were cultured on Poly-L-Lysine coated plates in SteCM medium supplemented with 2% of FBS, 1% of stellate cell growth supplement, and 1% of penicillin/streptomycin solution according to the manufacturer's instructions. Pancreatic cancer associated fibroblasts (CAF08) and maintenance media (PC00B5) were obtained from Vitro Biopharma. 100 of PSCs were culture-activated for 7 to have the confluent population of activated cells or 2×10^4 cells of CAF08 were cultured on a 96 well microplate (Corning, CLS3917) for 24h and were incubated with TLY012 (at 30 ng/ml or 100 ng/ml) for 3h. After incubation, 50 μL of Caspase 3/7 substrate/lysis buffer was added to each well and incubated for 30 min after 30 min of equilibration period to room temperature. The luminescence of each sample was measured on a plate reader (Bio-Tek Instruments Inc) with parameters of 1 min lag time and 0.5 sec/well-read time (n=3).\n(§2) For immunoblot, 100 of PSCs were culture activated on a 6 well plate for 7 days or 2×10^5 of CAF08 cells were plated on 6-well plates followed by control treatment or treatment with TLY012 (at 30 ng/ml or 100 ng/ml) for 3h. The lysates from the cells were tested for the presence of Cl.PARP-1 and SMA using Western bot."}, "[5]": {"test_system": "activated primary human hepatic stellate cells (HSCs)", "assay": "Cell cytotoxicity assay on activated hepatic stellate cells (myofibroblasts)", "type": "cell-based", "conditions": "FIG. 3", "experimental": "(§1) In addition to the standard physico-chemical characterization, the leads were tested for the target potency and off-target toxicity. Initially, selective apoptotic activities of various TLY012 leads were tested in normal (off-target) and myofibroblasts (target cells) by utilizing quiescent and activated primary human hepatic stellate cells (HSCs) respectively. Briefly, quiescent and culture-activated HSCs were incubated with TLY012 leads and cell viability was determined by cell cytotoxicity assays."}, "[6]": {"test_system": "quiescent primary human hepatic stellate cells (HSCs)", "assay": "Cell cytotoxicity assay on quiescent hepatic stellate cells (off-target)", "type": "cell-based", "conditions": "high concentrations (100 nM)", "experimental": "as §1"}, "[7]": {"test_system": "Pancreatic cancer associated fibroblasts (CAF08)", "protocol": "Pancreatic cancer associated fibroblasts (CAF08) and maintenance media (PC00B5) were obtained from Vitro Biopharma. 100 of PSCs were culture-activated for 7 to have the confluent population of activated cells or 2×10^4 cells of CAF08 were cultured on a 96 well microplate (Corning, CLS3917) for 24h and were incubated with TLY012 (at 30 ng/ml or 100 ng/ml) for 3h. After incubation, 50 μL of Caspase 3/7 substrate/lysis buffer was added to each well and incubated for 30 min after 30 min of equilibration period to room temperature. The luminescence of each sample was measured on a plate reader (Bio-Tek Instruments Inc) with parameters of 1 min lag time and 0.5 sec/well-read time (n=3).\nas §2\nPancreatic cancer associated fibroblasts (CAF08) and maintenance media (PC00B5) were obtained from Vitro Biopharma and maintained in Pancreatic Stellate CAF maintenance media (Vitro Biopharma, Cat. No. PC00B5).\nAfter incubation, 50 uL of Caspase 3/7 substrate/lysis buffer from Caspase3/7 Glo assay kit (Promega, Madison USA) was added to each well and incubated for 30 min after 30 min of equilibration period to room temperature. The luminescence of each sample was measured on a plate reader (Bio-Tek Instruments Inc) with parameters of 1 min lag time and 0.5 sec/well-read time (n=3).\nFor Western blot, 2×10^5 cells were plated on 6-well plates and were incubated with the same cytotoxic agents as indicated followed by Western blot detection of Cl.PARP-1, PD-L1, DR5, DR4, α-SMA, and β-actin."}},
  "data": [
    {"substance": "TLY012: PEGylated (5 kDa PEG-aldehyde) recombinant human TRAIL (114-281) fused to modified isoleucine zipper (miLZ) at N-terminus; SEQ ID NO:30 trimer", "values": [
      {"measurement": "IC50", "setting": "COLO 205 cells", "value": 0.0155, "unit": "nM"},
      {"measurement": "off-target toxicity", "setting": "[1]", "value": "did not show any off-target toxicity"},
      {"measurement": "resistance to multiple freeze-thaw cycles", "setting": "[2]; formulated at 21-22 mg/mi, biological activity and HPLC appearance", "value": "resistant to multiple freeze-thaw cycles"},
      {"measurement": "concentration at which formulation was stable", "setting": "[2]; in the presence of physiological concentrations of salt, no detectable precipitation, same IEX-HPLC pattern", "value": "up to 25 mg/ml"},
      {"measurement": "apoptosis by Caspase3/7 activity assay", "setting": "[3]", "value": "induced apoptosis"},
      {"measurement": "Cl.PARP-1, immunoblot", "setting": "[4]", "value": "detected"},
      {"measurement": "caspase 3/7 activity (RLU)", "setting": "[4]; vs control treatment", "value": "activated caspase 3/7"},
      {"measurement": "IC50", "setting": "[5]", "value": 0.142, "unit": "nM"},
      {"measurement": "effect / off-target toxicity on quiescent HSCs", "setting": "[6]", "value": "no effect"},
      {"measurement": "effect / off-target toxicity on quiescent HSCs", "setting": "[6]; listed as TLY012 leads", "value": "no off-target toxicity"},
      {"measurement": "Cl.PARP-1, immunoblot", "setting": "[7]; TLY012 30 or 100 ng/ml for 3h", "value": "detected"},
      {"measurement": "caspase 3/7 activity (RLU)", "setting": "[7]; TLY012 30 or 100 ng/ml for 3h, vs control treatment", "value": "activated caspase 3/7"},
      {"measurement": "protein levels of α-SMA, Western blotting", "setting": "[7]; pancreatic CAF", "value": "significantly decreased"}
    ]}
  ]
}
